{"source": "patent US10307410B2", "about": "“Mcl-1 modulating compounds for cancer treatment” (CENTRE REGIONAL DE LUTTE CONTRE LE CANCER FRANCOIS BACLESSE, priority 2014, dated 2019)", "assay_type_in_all_cases": "cell-based", "key": {"[1]": {"test_system": "IGROV1-R10 chemoresistant ovarian cancer cells", "assay": "Pyridoclax / ABT-737 association, apoptotic cell death", "procedure": "FIG. 4 represents the effect of the association of Pyridoclax with ABT-737 on chemoresistant ovarian cancer cells IGROV1-R10 (top) and SKOV3 (bottom). Cells were concomitantly (A, E) or sequentially (B) exposed to 25 μM Pyridoclax and 5 μM ABT-737, and cellular effects were assessed either longitudinally (A, B, E) or after 24 h (C, D, F). [A, B, E] real time cellular activity assessed by impedancmetry (xCELLigence technology), after concomitant exposure (A, E) or sequential exposure (B; 24 h Pyridoclax, then ABT-737). [C]: Cellular morphology and DNA content histograms after a 24 h concomitant exposure. [D and F]: PARP and caspase 3 cleavage after a 24 h concomitant exposure.\nAdherent and floating cells were pooled, washed with 1×PBS and centrifuged at 200 g for 5 min before staining by Annexin V, propidium iodide or both, as recommended by the manufacturer (Roche Diagnostic, Indianapolis, USA). Briefly, 100 μl of Annexin V—Flit or propidium iodide or both were added on the cells pellet (10^6 cells) and incubated 15 minutes at room temperature in obscurity. 500 μl of sample buffer was then added on the suspensions that were thereafter analyzed using a Gallios flow cytometer (Beckman Coulter, Roissy, France) and cell cycle distribution was determined using Kaluza acquisition software (Beckman Coulter).\nCells were rinsed with ice-cold PBS, suspended in a lysis buffer [RIPA:NaCl 150 mM, Tris (pH 8) 50 mM, Triton X100 1%, PMSF 4 mM, EDTA 5 mM, NaF 10 mM, NaPPi 10 mM, Na3OV4 1 mM, aprotinin 0.5 μl/ml and 4.6 ml ultra pure water] and incubated on ice for 30 minutes. Lysates were collected after centrifugation (13200 g, 10 min, 4° C.) and protein concentrations were determined using the Bradford assay (Bio-Rad, Hercules, USA). 20 μg of protein were separated by SDS-PAGE on a 4-12% gradient polyacrylamide gel (Invitrogen, Cergy-Pontoise, France) and transferred to Hybond-PVDF membranes (Amersham, Orsay, France). […]"}, "[2]": {"test_system": "IGROV1-R10 ovarian cancer cells", "assay": "Trypan blue exclusion assay", "details": "IGROV1-R10, Pyridoclax associated to siXL1"}, "[3]": {"test_system": "IGROV1-R10 ovarian cancer cells", "assay": "Cellular morphology / cell detachment, molecule alone or with Bcl-xL targeting siRNA", "procedure": "Exponentially growing cells were transfected by siRNA as described below, and after 48 h, cells were continuously exposed to (Het)aromatic oligosystems (10, 25 or 50 μM) dissolved in DMSO (<0.1% of total volume) for 4 to 24 supplementary hours.\nCells were seeded in 25 cm^2 flasks the day before to reach 30-50% confluency at the time of transfection. The transfection INTERFERin™ reagent (Polyplus Transfection, Strasbourg. France) was added to siRNA diluted in Opti-MEM® reduced serum medium (Invitrogen, Cergy-Pontoise, France) and complexes formation was allowed to proceed for 15 min at RT before being applied to cells. The final siRNA concentration in the flasks was 20 nM."}, "Noxa/Mcl-1 interaction": {"target": "T1, Noxa/Mcl-1 interaction (Homo sapiens, UniProt Q07820)", "T1 construct": "expressed in transfected cells; host or cells: HeLa cells", "T1 sequence (Q07820 whole entry)": "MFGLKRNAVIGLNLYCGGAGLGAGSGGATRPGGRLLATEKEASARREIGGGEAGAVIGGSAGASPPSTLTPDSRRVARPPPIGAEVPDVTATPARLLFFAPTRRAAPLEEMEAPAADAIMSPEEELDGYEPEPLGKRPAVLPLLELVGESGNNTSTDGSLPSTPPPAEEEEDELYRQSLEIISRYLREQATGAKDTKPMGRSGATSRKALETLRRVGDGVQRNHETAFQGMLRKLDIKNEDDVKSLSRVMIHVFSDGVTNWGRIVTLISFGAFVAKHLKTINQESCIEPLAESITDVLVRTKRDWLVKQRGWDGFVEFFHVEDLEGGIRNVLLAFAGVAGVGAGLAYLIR", "assay": "BRET assay, Noxa/Mcl-1 interaction", "details": "BRET in Hela cells, 10 μM, 16 hours", "procedure": "Hela cells were seeded on 6-well plates and transfected with 200 ng/well of plasmid pRLuc-Bax, pRLuc-Puma or pRLuc-Noxa coding for BRET donors and 1 µg/well of peYFP-Bcl-xL or peYFP-Mcl-1 coding for BRET acceptors (or with pCMV-Bcl-xL or pCMV-Mcl-1 for control). Twenty-four hours after transfection, cells were trypsinized and re-seeded into white 96 well plate flat bottom, incubated for another day, and then treated with drugs for 16 hours at 10 μM. Light emission at 485 nm and 530 nm was measured consecutively using the Mithras fluorescence-luminescence detector LB 940 (Berthold) after adding the luciferase substrate, coelenterazine H (Uptima) at a final concentration of 5 μM. BRET ratios were calculated as described [Terrillon et al. (2003) Mol Endocrinol 17, 677-691, Vo et al. (2012) Eur J Med Chem., 286-93]."}, "[4]": {"details": "IGROV1-R10, Pyridoclax associated to siXL1"}}}
{"smiles": "Cc1cc(-c2ncc(-c3cccnc3)cc2/C=C/c2ccccc2)cnc1-c1cccnc1", "note": "[Pyridoclax, 5,6′-di(pyridin-3-yl)-5′-methyl-3-((E)-styryl)-2,3′-bipyridine]", "values": [{"measurement": "cell death, combination with ABT-737", "setting": "[1]; IGROV1-R10, 25 μM Pyridoclax + 5 μM ABT-737", "result": "massive apoptotic cell death"}, {"measurement": "cell death as single agent", "setting": "[1]; IGROV1-R10, single agent", "result": "neither ABT-737 nor Pyridoclax induced cell death as single agents"}, {"measurement": "number of viable cells", "setting": "[2]", "result": "drastic decrease of the number of viable cells"}, {"measurement": "effects in response to 10 μM", "setting": "[3]; IGROV1-R10, Pyridoclax 10 μM associated to siXL1 (data not shown)", "result": "also observed in a lower extend"}, {"measurement": "Cell detachment", "setting": "[3]; [4]", "result": "strong cell detachment"}, {"measurement": "concentration at which effects are optimal", "setting": "[3]; [4]", "result": 25, "unit": "µM"}, {"measurement": "cell death, agent on its own", "setting": "[3]; IGROV1-R10, single agent", "result": "neither Pyridoclax nor the Bcl-xL targeting siRNA (siXL1) induced massive cell death on their own"}, {"measurement": "effect on Noxa/Mcl-1 interaction", "setting": "Noxa/Mcl-1 interaction", "result": "able to disrupt"}]}
